According to patent publication US9796704B2, “Substituted quinazolines as receptor-type kinase inhibitors” (Symphony Evolution, Inc., priority 2002, dated 2017):

Experiments:
[1] = target: EphA2 (Homo sapiens (Human), UniProt P29317); experiment: EphA2 kinase inhibition, luciferase-coupled chemiluminescent assay (LCCA); details: read-out: EphA2 IC50
Method: Kinase activity and compound inhibition are investigated using one or more of the three assay formats described below. The ATP concentrations are selected near its Michaelis-Menten constant (KM) for each individual kinase. Dose-response experiments are performed at ten different inhibitor concentrations in a 384-well plate format. […] Typically H is close to unity.
In the LCCA assays, kinase activity is measured by the ATP consumption that is accurately measured by luciferase-coupled chemiluminescence. Greiner 384-well white clear bottom medium binding plates are used for LCCA. Briefly the kinase reaction is initiated by mixing compounds, ATP and kinases in a 20 μL volume. At the end of the kinase reaction, a 20 μL luciferase-luciferin mix is added and the chemiluminescent signal is read on a Wallac Victor^2 reader.

[2] = target: EphB4 (Homo sapiens (Human), UniProt P54760); experiment: EphB4 kinase inhibition, 33P phosphoryl transfer assay (radiometric); format: biochemical
Sequence of EphB4 (P54760 605-890): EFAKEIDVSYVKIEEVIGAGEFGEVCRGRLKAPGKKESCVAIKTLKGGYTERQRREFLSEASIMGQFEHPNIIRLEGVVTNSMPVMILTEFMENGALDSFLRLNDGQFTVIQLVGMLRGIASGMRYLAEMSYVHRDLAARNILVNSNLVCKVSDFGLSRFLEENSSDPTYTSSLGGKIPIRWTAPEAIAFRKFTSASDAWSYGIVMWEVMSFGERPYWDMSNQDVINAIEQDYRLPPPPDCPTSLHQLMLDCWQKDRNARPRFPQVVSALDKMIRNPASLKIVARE
Method: Phosphorylated substrate products are quantified by scintillation spectrometry.
Kinase activity and compound inhibition are investigated using one or more of the three assay formats described below. The ATP concentrations are selected near its Michaelis-Menten constant (KM) for each individual kinase. Dose-response experiments are performed at ten different inhibitor concentrations in a 384-well plate format. […] These parameters are obtained by nonlinear regression algorithm built into ActivityBase software (available from ID Business Solutions Ltd., of Guildford, Surrey, UK). ^33P Phosphoryl Transfer Assay (Radiometric)
Greiner 384-well white clear bottom high binding plates (available from Greiner Bio-One, Inc., of Longwood, Fla.) are coated with 2 μg/well of protein or peptide substrate in a 50 μL volume overnight at ambient temperature. […] The coating solution is aspirated and the plates are washed once with 50 μL of assay buffer and padded dry. Subsequently compounds and enzymes are mixed with γ ^33P-ATP (3.3 μCi/nmol) in a total volume of 20 uL in suitable assay buffers (see Table 2). For example the final EphB4 reaction solution contains 20 mM TrisHCl, pH 7.5, 10 mM MgCl2, 0.01% Triton X-100, 0.1 mM NaVO3, 5 nM EphB4 enzyme and 5 μM ATP. […] The plates are subsequently washed 6-12 times with PBST or TBS buffer.

[3] = target: EGFR (Homo sapiens (Human), UniProt P00533); experiment: EGFR kinase inhibition, luciferase-coupled chemiluminescent assay (LCCA); details: read-out: EGFR IC50
Sequence of EGFR (P00533 672-1210): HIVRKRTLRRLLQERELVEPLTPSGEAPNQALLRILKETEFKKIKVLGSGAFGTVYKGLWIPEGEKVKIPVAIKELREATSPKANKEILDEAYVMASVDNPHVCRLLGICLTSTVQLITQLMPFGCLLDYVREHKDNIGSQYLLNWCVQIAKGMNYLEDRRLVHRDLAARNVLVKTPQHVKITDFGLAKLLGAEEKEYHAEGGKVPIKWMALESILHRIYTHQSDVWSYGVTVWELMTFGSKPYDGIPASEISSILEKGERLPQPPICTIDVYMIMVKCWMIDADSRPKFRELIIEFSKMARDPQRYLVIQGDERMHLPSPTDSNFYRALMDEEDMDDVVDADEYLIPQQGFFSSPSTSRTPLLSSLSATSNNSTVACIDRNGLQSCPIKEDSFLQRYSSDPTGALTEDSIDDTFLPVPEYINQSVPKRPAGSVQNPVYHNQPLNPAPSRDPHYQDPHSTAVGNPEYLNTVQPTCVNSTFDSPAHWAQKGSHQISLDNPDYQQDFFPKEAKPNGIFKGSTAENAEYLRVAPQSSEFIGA

Sequence of EphA2 (P29317 598-890): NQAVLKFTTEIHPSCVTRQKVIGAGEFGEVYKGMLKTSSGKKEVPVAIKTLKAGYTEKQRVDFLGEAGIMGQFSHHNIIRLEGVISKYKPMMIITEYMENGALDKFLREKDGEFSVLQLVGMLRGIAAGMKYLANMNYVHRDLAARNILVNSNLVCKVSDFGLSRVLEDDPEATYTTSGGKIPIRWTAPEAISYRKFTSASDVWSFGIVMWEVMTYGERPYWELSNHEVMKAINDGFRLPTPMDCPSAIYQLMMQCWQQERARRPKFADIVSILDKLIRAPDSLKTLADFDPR

Row | Structure (SMILES) | IC50 [1] [nM] | IC50 [2] [nM] | IC50 [3] [nM]
1 | CCN1CCN(c2noc(COc3cc4ncnc(Nc5ccc(Cl)c(Cl)c5)c4cc3OC)n2)CC1 [Example 220, N-(3,4-dichlorophenyl)-7-({[3-(4-ethylpiperazin-1-yl)-1,2,4-oxadiazol-5-yl]methyl}oxy)-6-(methyloxy)quinazolin-4-amine] | 50 to 1000 | 50 to 1000 | < 50
2 | COc1cc2c(Nc3ccc(Cl)c(Cl)c3)ncnc2cc1OCc1csc(-c2ccc(Cl)cc2)n1 [Example 223, 7-({[2-(4-chlorophenyl)-1,3-thiazol-4-yl]methyl}oxy)-N-(3,4-dichlorophenyl)-6-(methyloxy)quinazolin-4-amine] | 50 to 1000 | 50 to 1000 | < 50
3 | COCCN1CCOC(COc2cc3ncnc(Nc4ccc(Cl)c(Cl)c4)c3cc2OC)C1 (stereo not drawn) [Example 272, N-(3,4-dichlorophenyl)-6-(methyloxy)-7-[({4-[2-(methyloxy)ethyl]morpholin-2-yl}methyl)oxy]quinazolin-4-amine] | 1000 to 20000 | 50 to 1000 | < 50
4 | COc1cc2c(Nc3ccc(Cl)c(Cl)c3)ncnc2cc1OCCN1CCCCC1 [Example 192, N-(3,4-dichlorophenyl)-6-(methyloxy)-7-[(2-piperidin-1-ylethyl)oxy]quinazolin-4-amine] | 1000 to 20000 | 50 to 1000 | < 50
5 | COc1cc2c(Nc3ccc(Cl)c(Cl)c3)ncnc2cc1OC1CCCC1 [Example 184, 7-(cyclopentyloxy)-N-(3,4-dichlorophenyl)-6-(methyloxy)quinazolin-4-amine] | 1000 to 20000 | 50 to 1000 | < 50
6 | COc1cc2c(Nc3ccc(Cl)c(Cl)c3)ncnc2cc1OCCC1CCCCC1 [Example 185, 7-[(2-cyclohexylethyl)oxy]-N-(3,4-dichlorophenyl)-6-(methyloxy)quinazolin-4-amine] | 50 to 1000 | 50 to 1000 | < 50
7 | COc1cc2c(Nc3ccc(Cl)c(Cl)c3)ncnc2cc1OCc1csc(N(C)C)n1 [Example 240, N-(3,4-dichlorophenyl)-7-({[2-(dimethylamino)-1,3-thiazol-4-yl]methyl}oxy)-6-(methyloxy)quinazolin-4-amine] | 50 to 1000 | < 50 | < 50
8 | CCN1CCCCC1c1nc(COc2cc3ncnc(Nc4ccc(Cl)c(Cl)c4)c3cc2OC)no1 (stereo not drawn) [Example 219, N-(3,4-dichlorophenyl)-7-({[5-(1-ethylpiperidin-2-yl)-1,2,4-oxadiazol-3-yl]methyl}oxy)-6-(methyloxy)quinazolin-4-amine] | 50 to 1000 | 50 to 1000 | < 50
9 | COc1cc2c(Nc3ccc(Cl)c(Cl)c3)ncnc2cc1OCCN1CCCC1 [Example 191, N-(3,4-dichlorophenyl)-6-(methyloxy)-7-[(2-pyrrolidin-1-ylethyl)oxy]quinazolin-4-amine] | 50 to 1000 | 50 to 1000 | < 50
10 | CCN1CCN(c2nc(COc3cc4ncnc(Nc5ccc(Cl)c(Cl)c5)c4cc3OC)cs2)CC1 [Example 267, N-(3,4-dichlorophenyl)-7-({[2-(4-ethylpiperazin-1-yl)-1,3-thiazol-4-yl]methyl}oxy)-6-(methyloxy)quinazolin-4-amine] | 1000 to 20000 | 1000 to 20000 | < 50
11 | COc1cc2c(Nc3ccc(Cl)c(Cl)c3)ncnc2cc1OCc1csc(C2CCCCN2C)n1 (stereo not drawn) [Example 250, N-(3,4-dichlorophenyl)-6-(methyloxy)-7-({[2-(1-methylpiperidin-2-yl)-1,3-thiazol-4-yl]methyl}oxy)quinazolin-4-amine] | 50 to 1000 | 50 to 1000 | < 50
12 | COc1cc2c(Nc3cccc(Cl)c3F)ncnc2cc1O[C@H]1CO[C@H]2[C@@H]1OC[C@@H]2OC [Example 71, 1,4:3,6-dianhydro-2-O-[4-[(3-chloro-2-fluorophenyl)amino]-6-(methyloxy)quinazolin-7-yl]-5-O-methyl-L-iditol] | 50 to 1000 | 50 to 1000 | < 50
13 | CCN1CCOC(COc2cc3ncnc(Nc4ccc(Cl)c(Cl)c4)c3cc2OC)C1 (stereo not drawn) [Example 212, N-(3,4-dichlorophenyl)-7-{[(4-ethylmorpholin-2-yl)methyl]oxy}-6-(methyloxy)quinazolin-4-amine] | 50 to 1000 | 50 to 1000 | < 50
14 | COc1cc2c(Nc3ccc(Cl)c(Cl)c3)ncnc2cc1OCc1nc2c(s1)CNCC2 [Example 208, N-(3,4-dichlorophenyl)-6-(methyloxy)-7-[(4,5,6,7-tetrahydro[1,3]thiazolo[5,4-c]pyridin-2-ylmethyl)oxy]quinazolin-4-amine] | 50 to 1000 | 50 to 1000 | < 50
15 | COc1cc2c(Nc3ccc(Cl)c(Cl)c3)ncnc2cc1O[C@H]1CO[C@H]2[C@@H]1OC[C@@H]2OC [Example 72, 1,4:3,6-dianhydro-2-O-[4-[(3,4-dichlorophenyl)amino]-6-(methyloxy)quinazolin-7-yl]-5-O-methyl-L-iditol] | 50 to 1000 | 50 to 1000 | < 50
16 | COc1cc2c(Nc3ccc(Cl)c(Cl)c3)ncnc2cc1OCc1noc(C2CCCN2)n1 (stereo not drawn) [Example 263, N-(3,4-dichlorophenyl)-6-(methyloxy)-7-{[(5-pyrrolidin-2-yl-1,2,4-oxadiazol-3-yl)methyl]oxy}quinazolin-4-amine] | 1000 to 20000 | 50 to 1000 | < 50
17 | COc1cc2c(Nc3ccc(Cl)c(Cl)c3)ncnc2cc1OCc1noc(-c2ccccc2OC)n1 [Example 227, N-(3,4-dichlorophenyl)-6-(methyloxy)-7-[({5-[2-(methyloxy)phenyl]-1,2,4-oxadiazol-3-yl}methyl)oxy]quinazolin-4-amine] | 50 to 1000 | < 50 | < 50
18 | COc1cc2c(Nc3ccc(Cl)c(Cl)c3)ncnc2cc1OCc1csc([C@@H]2CCCN2C)n1 [Example 266, N-(3,4-dichlorophenyl)-6-(methyloxy)-7-[({2-[(2S)-1-methylpyrrolidin-2-yl]-1,3-thiazol-4-yl}methyl)oxy]quinazolin-4-amine] | 1000 to 20000 | 50 to 1000 | < 50
19 | COc1cc2c(Nc3ccc(Cl)c(Cl)c3)ncnc2cc1OCc1csc(C2CCNCC2)n1 [Example 213, N-(3,4-dichlorophenyl)-6-(methyloxy)-7-{[(2-piperidin-4-yl-1,3-thiazol-4-yl)methyl]oxy}quinazolin-4-amine] | 50 to 1000 | < 50 | < 50
20 | COc1cc2c(Nc3ccc(Cl)c(Cl)c3)ncnc2cc1OCc1nc(CN2CCOCC2)cs1 [Example 209, N-(3,4-dichlorophenyl)-6-(methyloxy)-7-({[4-(morpholin-4-ylmethyl)-1,3-thiazol-2-yl]methyl}oxy)quinazolin-4-amine] | 50 to 1000 | < 50 | < 50
21 | COc1cc2c(Nc3ccc(Cl)c(Cl)c3)ncnc2cc1OCc1nc(-c2cccnc2)cs1 [Example 201, N-(3,4-dichlorophenyl)-6-(methyloxy)-7-{[(4-pyridin-3-yl-1,3-thiazol-2-yl)methyl]oxy}quinazolin-4-amine] | 50 to 1000 | 50 to 1000 | < 50
22 | COc1cc2c(Nc3ccc(Cl)c(Cl)c3)ncnc2cc1OCc1csc(C2CCN(C)CC2)n1 [Example 214, N-(3,4-dichlorophenyl)-6-(methyloxy)-7-({[2-(1-methylpiperidin-4-yl)-1,3-thiazol-4-yl]methyl}oxy)quinazolin-4-amine] | 50 to 1000 | < 50 | < 50
23 | CCN1CCCC1c1nc(COc2cc3ncnc(Nc4ccc(Cl)c(Cl)c4)c3cc2OC)no1 (stereo not drawn) [Example 264, N-(3,4-dichlorophenyl)-7-({[5-(1-ethylpyrrolidin-2-yl)-1,2,4-oxadiazol-3-yl]methyl}oxy)-6-(methyloxy)quinazolin-4-amine] | 1000 to 20000 | 50 to 1000 | < 50
24 | COc1cc2c(Nc3ccc(Cl)c(Cl)c3)ncnc2cc1OCCN1CCOCC1 [Example 190, N-(3,4-dichlorophenyl)-6-(methyloxy)-7-[(2-morpholin-4-ylethyl)oxy]quinazolin-4-amine] | 50 to 1000 | 50 to 1000 | < 50
25 | COc1cc2c(Nc3ccc(Cl)c(Cl)c3)ncnc2cc1OCC1CN(C(C)C)CCCO1 (stereo not drawn) [Example 261, N-(3,4-dichlorophenyl)-7-({[4-(1-methylethyl)-1,4-oxazepan-2-yl]methyl}oxy)-6-(methyloxy)quinazolin-4-amine] | 1000 to 20000 | 50 to 1000 | < 50
26 | COc1cc2c(Nc3ccc(Cl)c(Cl)c3)ncnc2cc1OCc1nccn1Cc1ccccc1 [Example 229, N-(3,4-dichlorophenyl)-6-(methyloxy)-7-({[1-(phenylmethyl)-lH-imidazol-2-yl]methyl}oxy)quinazolin-4-amine] | 1000 to 20000 | 50 to 1000 | < 50
27 | CCOC(=O)C(C)N1CCOC(COc2cc3ncnc(Nc4ccc(Cl)c(Cl)c4)c3cc2OC)C1 (stereo not drawn) [Example 273, ethyl 2-[2-({[4-[(3,4-dichlorophenyl)amino]-6-(methyloxy)quinazolin-7-yl]oxy}methyl)morpholin-4-yl]propanoate] | 1000 to 20000 | 1000 to 20000 | < 50
